Holding throughout (format): biochemical
One experiment addresses human cathepsin K (CatK) (Homo sapiens (Human), UniProt P43235). As to the kind of experiment: CatK functional enzyme assay. The note with it: for Ki: recombinant human CatK, substrate Z-FR-AMC 40 μM, pH 5.5, Ki by Cheng Prusoff equation, read-out: hCatK, Ki. Here is the method: (§1) Reference and test compounds were assayed for inhibitory potency (IC50) against human cathepsins using the following assay setups:
(§2) Recombinant human cathepsins (CatS, CatK, CatL) were purchased from a Enzo Life Sciences. All assays were carried out in 96-well format using a buffer of 50 mM KH2PO4, 50 mM NaCl, 2 mM EDTA, 0.5 mM DTT and 1% Triton-X-100, pH 6.5 for Cathepsin S and a buffer of 50 mM NaOAc, 10 mM EDTA, 1 mM DTT and 0.01% Triton-X-100, pH 5.5 for CatK/L/B. For CatS, the enzyme (0.0007 mU/well) was incubated with fluorogeninc substrate (Z-VVR-AMC, 5 μM) at RT for 10 min. For CatK the enzyme (0.00175 mU/well) was incubated with fluorogeninc substrate (Z-FR-AMC, 40 μM) at RT for 10 min. For CatL, the enzyme (0.000874 mU/well) was incubated with fluorogeninc substrate (Z-VVR-AMC, 40 μM) at RT for 10 min. Flourogenic substrate turnover was detected using a microplate reader (Synergy™ H4, BioTek). Ki values were calculated using the Cheng Prusoff equation (Cheng & Prosoff 1973).

For another experiment, the target named is human cathepsin L (CatL) (Homo sapiens (Human), UniProt P07711). As to the kind of experiment: CatL functional enzyme assay. The note with it: read-out: hCatL, inhibition [%] at 31.6 μM. Here is the method:
as §1, §2

The target of a further experiment is human cathepsin S (CatS) (Homo sapiens (Human), UniProt P25774). The experiment is described as follows: CatS functional enzyme assay. The note with it: for Selectivity Ki(hCatS)/Ki(hCatK): ratio Ki(hCatS)/Ki(hCatK); for Ki: read-out: hCatS, Ki; for inhibition at 10 µM: read-out: hCatS, inhibition [%] at 10 μM. The protocol: as §2, with “Reference and test compounds were assayed for inhibitory potency (IC50) against human cathepsins using the following assay setups: Recombinant” for “Recombinant”, “All assays were carried out in 96-well format using a buffer of 50 mM KH2PO4, 50 mM NaCl, 2 mM EDTA, 0.5 mM DTT and 1% Triton-X-100, pH 6.5 for Cathepsin S and a buffer of 50 mM NaOAc, 10 mM EDTA, 1 mM DTT and 0.01% Triton-X-100, pH 5.5 for CatK/L/B.” left out

[1] abbreviates: recombinant human CatS, substrate Z-VVR-AMC 5 μM, pH 6.5, Ki by Cheng Prusoff equation.

The values below come from patent publication US9725459B2, “3-oxo-tetrahydro-furo[3,2-B]pyrrol-4(5H)-yl) derivatives I” (GRÜNENTHAL GMBH, priority 2014, dated 2017).

Read-outs that look alike come from different tables or passages of the source.

Chain of human cathepsin L (CatL) (P07711 114-333): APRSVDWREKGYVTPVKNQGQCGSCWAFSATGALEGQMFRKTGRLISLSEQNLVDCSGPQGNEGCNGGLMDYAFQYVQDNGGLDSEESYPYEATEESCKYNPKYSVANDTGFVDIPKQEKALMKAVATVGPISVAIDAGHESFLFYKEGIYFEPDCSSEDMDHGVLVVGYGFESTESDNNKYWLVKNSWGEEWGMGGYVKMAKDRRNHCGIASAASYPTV
Chain of human cathepsin K (CatK) (P43235 115-329): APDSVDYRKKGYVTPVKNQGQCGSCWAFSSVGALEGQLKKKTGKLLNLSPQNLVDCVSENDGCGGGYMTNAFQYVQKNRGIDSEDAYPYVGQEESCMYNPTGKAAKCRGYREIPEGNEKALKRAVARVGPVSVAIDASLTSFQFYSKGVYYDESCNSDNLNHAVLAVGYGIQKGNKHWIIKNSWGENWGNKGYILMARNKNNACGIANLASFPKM
Chain of human cathepsin S (CatS) (P25774 115-331): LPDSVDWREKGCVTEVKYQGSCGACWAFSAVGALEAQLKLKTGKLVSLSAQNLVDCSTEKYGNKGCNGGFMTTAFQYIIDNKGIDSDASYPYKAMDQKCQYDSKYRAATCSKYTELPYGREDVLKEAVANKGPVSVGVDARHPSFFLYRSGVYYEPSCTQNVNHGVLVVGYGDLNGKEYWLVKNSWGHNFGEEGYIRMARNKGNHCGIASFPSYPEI

For orientation: Ki means a measure of affinity in units of concentration, obtained from inhibition or displacement. What is called inhibition is the change of the read-out against control, counted positive when it falls. `Cc1cc(-c2ccc(C(=O)N[C@H](C(=O)N3C[C@H](Cl)[C@H]4OCC(=O)[C@H]43)C3CCCCC3)s2)cnn1` [Example 69, N-((S)-2-((3aS,6S,6aS)-6-chloro-3-oxotetrahydro-2H-furo[3,2-b]pyrrol-4(5H)-yl)-1-cyclohexyl-2-oxoethyl)-5-(6-methylpyridazin-4-yl)thiophene-2-carboxamide]: the Ki at human cathepsin K (CatK) was found to be 8 nM; on human cathepsin S (CatS) (setting [1]) it was 9 nM. For the same molecule, at human cathepsin L (CatL), the inhibition at 31.6 µM was determined as 24%. For the same molecule, the “Selectivity Ki(hCatS)/Ki(hCatK)” value on human cathepsin S (CatS) came out at 1.1.
Regarding `O=C(N[C@H](C(=O)N1C[C@H](Cl)[C@H]2OCC(=O)[C@H]21)C1CCCCC1)c1ccc(-c2ccc(F)nn2)s1` [Example 38, N-((S)-2-((3aS,6S,6aS)-6-chloro-3-oxotetrahydro-2H-furo[3,2-b]pyrrol-4(5H)-yl)-1-cyclohexyl-2-oxoethyl)-5-(6-fluoropyridazin-3-yl)thiophene-2-carboxamide], the results for the inhibition constant (Ki) at human cathepsin K (CatK) and on human cathepsin S (CatS) (setting [1]) were 20 nM and 213 nM, respectively. Also, the inhibition at 31.6 µM on human cathepsin L (CatL) was 30%. On human cathepsin S (CatS), the “Selectivity Ki(hCatS)/Ki(hCatK)” value was determined as 10.7.
For `Cc1cc(-c2ccc(C(=O)N[C@H](C(=O)N3C[C@H](Cl)[C@H]4OCC(=O)[C@H]43)C3CCCCC3)s2)ccn1` [Example 33, N-((S)-2-((3aS,6S,6aS)-6-chloro-3-oxotetrahydro-2H-furo[3,2-b]pyrrol-4(5H)-yl)-1-cyclohexyl-2-oxoethyl)-5-(2-methylpyridin-4-yl)thiophene-2-carboxamide] the same measures were 4 nM, 86 nM, 12% and 21.5.
On to `O=C(N[C@H](C(=O)N1C[C@H](Cl)[C@H]2OCC(=O)[C@H]21)C1CCCCC1)c1ccc(-c2ccc[n+]([O-])c2)s1` [Example 70, 3-(5-(((S)-2-((3aS,6S,6aS)-6-chloro-3-oxotetrahydro-2H-furo[3,2-b]pyrrol-4(5H)-yl)-1-cyclohexyl-2-oxoethyl)carbamoyl)thiophen-2-yl)pyridine 1-oxide], for which the figures for the Ki at human cathepsin K (CatK) and on human cathepsin S (CatS) (setting [1]) were 19 nM and 27 nM, respectively. Moreover, at human cathepsin L (CatL), the inhibition at 31.6 µM is 41%. On human cathepsin S (CatS), the “Selectivity Ki(hCatS)/Ki(hCatK)” value was determined as 1.5.
Turning to `N#Cc1cncc(-c2cnc(C(=O)N[C@H](C(=O)N3C[C@H](Cl)[C@H]4OCC(=O)[C@H]43)C3CCCCC3)s2)c1` [Example 43, N-((S)-2-((3aS,6S,6aS)-6-chloro-3-oxotetrahydro-2H-furo[3,2-b]pyrrol-4(5H)-yl)-1-cyclohexyl-2-oxoethyl)-5-(5-cyanopyridin-3-yl)thiazole-2-carboxamide], the Ki on human cathepsin K (CatK) was 243 nM; at human cathepsin S (CatS) (setting [1]) it was 769 nM. Besides, the inhibition at 31.6 µM on human cathepsin L (CatL) worked out at 16%. Moreover, the “Selectivity Ki(hCatS)/Ki(hCatK)” value at human cathepsin S (CatS) is recorded as 3.2.
On to `O=C(N[C@H](C(=O)N1C[C@H](Cl)[C@H]2OCC(=O)[C@H]21)C1CCCCC1)c1ccc(-c2cnccn2)o1` [Example 25, N-((S)-2-((3aS,6S,6aS)-6-chloro-3-oxotetrahydro-2H-furo[3,2-b]pyrrol-4(5H)-yl)-1-cyclohexyl-2-oxoethyl)-5-(pyrazin-2-yl)furan-2-carboxamide], for which the Ki stood at 153 nM at human cathepsin K (CatK) and 833 nM on human cathepsin S (CatS) (setting [1]). Moreover, the inhibition at 31.6 µM on human cathepsin L (CatL) stood at 20%. Also, the “Selectivity Ki(hCatS)/Ki(hCatK)” value at human cathepsin S (CatS) worked out at 5.4.
As for `O=C(N[C@H](C(=O)N1C[C@H](Cl)[C@H]2OCC(=O)[C@H]21)C1CCCCC1)c1ccc(-c2ncncc2F)s1` [Example 36, N-((S)-2-((3aS,6S,6aS)-6-chloro-3-oxotetrahydro-2H-furo[3,2-b]pyrrol-4(5H)-yl)-1-cyclohexyl-2-oxoethyl)-5-(5-fluoropyrimidin-4-yl)thiophene-2-carboxamide], the Ki was determined as 22 nM on human cathepsin K (CatK) and 469 nM on human cathepsin S (CatS) (setting [1]). Moreover, the inhibition at 31.6 µM on human cathepsin L (CatL) was determined as 9%. Further, the “Selectivity Ki(hCatS)/Ki(hCatK)” value on human cathepsin S (CatS) is reported as 21.3.
As to `Cc1nc(-c2cccnc2)sc1C(=O)N[C@H](C(=O)N1C[C@H](Cl)[C@H]2OCC(=O)[C@H]21)C1CCCCC1` [Example 14, N-((S)-2-((3aS,6S,6aS)-6-chloro-3-oxotetrahydro-2H-furo[3,2-b]pyrrol-4(5H)-yl)-1-cyclohexyl-2-oxoethyl)-4-methyl-2-(pyridin-3-yl)thiazole-5-carboxamide], the inhibition at 10 µM on human cathepsin K (CatK) (read-out: hCatK, inhibition [%] at 10 μM) was found to be 88%; on human cathepsin S (CatS) it was 70%. The inhibition at 31.6 µM on human cathepsin L (CatL) turned out to be 21%.
Regarding `O=C(N[C@H](C(=O)N1C[C@H](Cl)[C@H]2OCC(=O)[C@H]21)C1CCCCC1)c1ccc(-c2ccncc2)o1` [Example 12, N-((S)-2-((3aS,6S,6aS)-6-chloro-3-oxotetrahydro-2H-furo[3,2-b]pyrrol-4(5H)-yl)-1-cyclohexyl-2-oxoethyl)-5-(pyridin-4-yl)furan-2-carboxamide], the Ki was 50 nM at human cathepsin K (CatK) and 521 nM at human cathepsin S (CatS) (setting [1]). Moreover, the inhibition at 31.6 µM at human cathepsin L (CatL) came out at 18%. Moreover, at human cathepsin S (CatS), the “Selectivity Ki(hCatS)/Ki(hCatK)” value stood at 10.4.
On to `O=C(N[C@H](C(=O)N1C[C@H](Cl)[C@H]2OCC(=O)[C@H]21)C1CCCCC1)c1cc(F)c(-c2cncnc2)s1` [Example 37, N-((S)-2-((3aS,6S,6aS)-6-chloro-3-oxotetrahydro-2H-furo[3,2-b]pyrrol-4(5H)-yl)-1-cyclohexyl-2-oxoethyl)-4-fluoro-5-(pyrimidin-5-yl)thiophene-2-carboxamide], for which the inhibition constant Ki was determined as 15 nM on human cathepsin K (CatK) and 401 nM at human cathepsin S (CatS). Besides, the inhibition at 31.6 µM on human cathepsin L (CatL) was 29%. Also, the “Selectivity Ki(hCatS)/Ki(hCatK)” value at human cathepsin S (CatS) came out at 26.7.
Take `O=C(N[C@H](C(=O)N1C[C@H](Cl)[C@H]2OCC(=O)[C@H]21)C1CCCCC1)c1ccc(-c2cnc(C3CC3)nc2)s1` [Example 55, N-((S)-2-((3aS,6S,6aS)-6-chloro-3-oxotetrahydro-2H-furo[3,2-b]pyrrol-4(5H)-yl)-1-cyclohexyl-2-oxoethyl)-5-(2-cyclopropylpyrimidin-5-yl)thiophene-2-carboxamide]: the Ki amounted to 29 nM on human cathepsin K (CatK) and 70 nM at human cathepsin S (CatS) (setting [1]). For the same molecule, on human cathepsin L (CatL), the inhibition at 31.6 µM stood at 13%. In addition, the “Selectivity Ki(hCatS)/Ki(hCatK)” value on human cathepsin S (CatS) was 2.4.
Turning to `O=C(N[C@H](C(=O)N1C[C@H](Cl)[C@H]2OCC(=O)[C@H]21)C1CCCCC1)c1cnc(-c2cccnc2)s1` [Example 13, N-((S)-2-((3aS,6S,6aS)-6-chloro-3-oxotetrahydro-2H-furo[3,2-b]pyrrol-4(5H)-yl)-1-cyclohexyl-2-oxoethyl)-2-(pyridin-3-yl)thiazole-5-carboxamide], the Ki on human cathepsin K (CatK) amounted to 29 nM. Further, the inhibition at 31.6 µM on human cathepsin L (CatL) turned out to be 16%. Further, the inhibition at 10 µM on human cathepsin S (CatS) amounted to 73%.
Turning to `O=C(N[C@H](C(=O)N1C[C@H](Cl)[C@H]2OCC(=O)[C@H]21)C1CCCCC1)c1cc(F)c(-c2ccnnc2)s1` [Example 40, N-((S)-2-((3aS,6S,6aS)-6-chloro-3-oxotetrahydro-2H-furo[3,2-b]pyrrol-4(5H)-yl)-1-cyclohexyl-2-oxoethyl)-4-fluoro-5-(pyridazin-4-yl)thiophene-2-carboxamide], the values for the Ki on human cathepsin K (CatK) and at human cathepsin S (CatS) (setting [1]) were 12 nM and 453 nM, respectively. Moreover, the inhibition at 31.6 µM on human cathepsin L (CatL) was determined as 39%. Also, the “Selectivity Ki(hCatS)/Ki(hCatK)” value at human cathepsin S (CatS) is 37.8.
Consider `O=C(N[C@H](C(=O)N1C[C@H](Cl)[C@H]2OCC(=O)[C@H]21)C1CCCCC1)c1ncc(-c2ccc(C3CC3)nc2)s1` [Example 64, N-((S)-2-((3aS,6S,6aS)-6-chloro-3-oxotetrahydro-2H-furo[3,2-b]pyrrol-4(5H)-yl)-1-cyclohexyl-2-oxoethyl)-5-(6-cyclopropylpyridin-3-yl)thiazole-2-carboxamide], for which the figures for the Ki on human cathepsin K (CatK) and at human cathepsin S (CatS) (setting [1]) were 29 nM and 616 nM, respectively. Further, the inhibition at 31.6 µM at human cathepsin L (CatL) was found to be 5%. Further, the “Selectivity Ki(hCatS)/Ki(hCatK)” value on human cathepsin S (CatS) is listed as 21.3.
In the case of `Cc1ncc(-c2ccc(C(=O)N[C@H](C(=O)N3C[C@H](Cl)[C@H]4OCC(=O)[C@H]43)C3CCCCC3)s2)cn1` [Example 30, N-((S)-2-((3aS,6S,6aS)-6-chloro-3-oxotetrahydro-2H-furo[3,2-b]pyrrol-4(5H)-yl)-1-cyclohexyl-2-oxoethyl)-5-(2-methylpyrimidin-5-yl)thiophene-2-carboxamide], the results for the Ki on human cathepsin K (CatK) and on human cathepsin S (CatS) (setting [1]) were 10 nM and 72 nM, respectively. In addition, the inhibition at 31.6 µM on human cathepsin L (CatL) stood at 28%. The “Selectivity Ki(hCatS)/Ki(hCatK)” value on human cathepsin S (CatS) is reported as 7.2.
